This is an account of results in EP0293532A1, “6- or 7-beta-[2-[4-(substituted)-2,3-dioxopiperazin-1-yl) carbonylamino]-(substituted)acetamido]-penicillin and cephalosporin derivatives” (BEECHAM GROUP PLC, priority 1987, dated 1988).

Counter-ions that a name gives are not always drawn.

Holding throughout (experiment): MIC by serial dilution in Iso-sensitest agar
What all share (type): cell-based

The subject of assay [1] is E.Coli JT 425. As to conditions: Escherichia coli, JT425, 10⁴ colony-forming units, overnight at 37°C, lowest concentration to inhibit growth. On the procedure: (§1) Minimum Inhibitory Concentration (MIC) values of compounds of the invention against a variety of organisms were determined by serial dilution in Iso-sensitest agar (from Oxoid Ltd. Basingstoke, England). The plates were inoculated with 10⁴ colony-forming units and incubated overnight at 37°C. The MIC values recorded in Table I were the lowest concentration of antibiotic to inhibit growth. Comparative data for Piperacillin (6β-[D-2-[(4-ethyl-2, 3-dioxopiperazin-1-yl)carbonylamino]-2-phenylacetamido] -penicillanic acid, sodium salt) and for the compound 6α-formamido-6β-[D-2-[(4-ethyl-2, 3-dioxopiperazin-1-yl)carbonylamino]-2- phenyl acetamido]-penicillanic acid, sodium salt (Compound A) disclosed in U.K. Patent GB-2107307B, are also given.

Assay [2] relates to S agalactiae 2798. As to conditions: 10⁴ colony-forming units, overnight at 37°C, lowest concentration to inhibit growth. On the procedure:
as §1

Assay [3] has as its system E.Coli DC RTEM. As to conditions: Escherichia coli. On the procedure: as §1
Assay [4] relates to K.pneumoniae T767. As to conditions: Klebsiella pneumoniae, 10⁴ colony-forming units, overnight at 37°C, lowest concentration to inhibit growth. On the procedure:
as §1

The subject of assay [5] is P.aerginosa 10662. As to conditions: 10⁴ colony-forming units, overnight at 37°C, lowest concentration to inhibit growth. On the procedure: as §1
In assay [6] the test system is P.aeruginosa K79961. As to conditions: Pseudomonas aeruginosa, 10⁴ colony-forming units, overnight at 37°C, lowest concentration to inhibit growth. On the procedure: as §1

As to `CC1(C)S[C@@H]2[C@H](NC(=O)[C@H](NC(=O)N3CCN(Cc4ccc(O)c(O)c4)C(=O)C3=O)c3ccccc3)C(=O)N2[C@H]1C(=O)O` [Example 1, Sodium 6β-[D-2[[4-(3,4-Dihydroxybenzyl)-2,3-dioxopiperazin-1-yl]carbonylamino]-2-phenylacetamido]penicillanate], the MIC in assay [1] was 1 µg/mL; in assay [2] it was 0.25 µg/mL; in assay [3], 4 µg/mL; in assay [4], 0.5 µg/mL; in assay [5] it was 0.12 µg/mL; in assay [6], below 0.06 µg/mL.
`CC1(C)S[C@H]2N(C(=O)[C@@]2(NC=O)NC(=O)[C@H](NC(=O)N2CCN(Cc3ccc(O)c(O)c3)C(=O)C2=O)c2ccccc2)[C@H]1C(=O)O` [Example 2, Sodium 6β-[D-2[[4-(3,4-Dihydroxybenzyl)-2,3-dioxopiperazin-1-yl]carbonylamino]-2-phenylacetamido]-6α-formamidopenicillanate]: the MIC was below 0.03 µg/mL in assay [1]; 16 µg/mL in assay [2]; below 0.03 µg/mL in assay [3]; below 0.03 µg/mL in assay [4]; 0.12 µg/mL in assay [5]; 0.12 µg/mL in assay [6].
`CO[C@@]1(NC(=O)[C@H](NC(=O)N2CCN(Cc3ccc(O)c(O)c3)C(=O)C2=O)c2ccccc2)C(=O)N2[C@@H](C(=O)O)C(C)(C)S[C@@H]21` [Example 3, Sodium 6β-[D-2-[[4-(3,4-Dihydroxybenzyl)-2,3-dioxopiperazin-1-yl]carbonylamino]-2-phenylacetamido]-6α-methoxypenicillanate]: the MIC in assay [1] was 16 µg/mL; in assay [2] it was above 128 µg/mL; in assay [3], 2 µg/mL; in assay [4] it was 0.25 µg/mL; in assay [5], 4 µg/mL; in assay [6], 1 µg/mL.
Regarding `CC1(C)S[C@H]2N(C(=O)[C@@]2(NC=O)NC(=O)[C@H](NC(=O)N2CCN(Cc3cc(O)c(O)cn3)C(=O)C2=O)c2ccccc2)[C@H]1C(=O)O` [Example 6, Sodium 6β-[D-2-[[4-(4,5-Dihydroxypyridin-2-ylmethyl)-2,3-dioxopiperazin-1-yl]carbonylamino]-2-phenylacetamido]-6α-formamidopenicillanate], the MIC was 0.25 µg/mL in assay [1]; above 32 µg/mL in assay [2]; 0.06 µg/mL in assay [3]; 0.06 µg/mL in assay [4]; 1 µg/mL in assay [5]; 0.3 µg/mL in assay [6].
On to `CCN1CCN(C(=O)N[C@@H](C(=O)N[C@]2(NC=O)C(=O)N3[C@@H](C(=O)O)C(C)(C)S[C@@H]32)c2ccccc2)C(=O)C1=O` [Compound A, 6α-formamido-6β-[D-2-[(4-ethyl-2,3-dioxopiperazin-1-yl)carbonylamino]-2-phenylacetamido]-penicillanic acid, sodium salt, reference compound], for which the MIC worked out at 0.25 µg/mL in assay [1]; 64 µg/mL in assay [2]; 0.12 µg/mL in assay [3]; 0.12 µg/mL in assay [4]; 1 µg/mL in assay [5]; 0.12 µg/mL in assay [6].
With `CCN1CCN(C(=O)N[C@@H](C(=O)N[C@@H]2C(=O)N3[C@@H]2SC(C)(C)[C@@H]3C(=O)O)c2ccccc2)C(=O)C1=O` [Piperacillin, 6β-[D-2-[(4-ethyl-2,3-dioxopiperazin-1-yl)carbonylamino]-2-phenylacetamido] -penicillanic acid, sodium salt, reference compound], the MIC in assay [1] is 32 µg/mL; in assay [2], 0.5 µg/mL; in assay [3], above 128 µg/mL; in assay [4], 8 µg/mL; in assay [5], 8 µg/mL; in assay [6], 0.25 µg/mL.
